Assay results as given in PubChem BioAssay AID252 (DTP/NCI, 2004).
Where “and” joins values, the source holds several entries; their conditions need not be identical. Equal values may be shown once. Inconclusive results and toxic doses are left out. Rule for the calls: active = survival T/C of 150% or more; inactive = T/C below 125% in these data.

Tested on: BDF1 mice, intracerebral L1210 leukemia, survival T/C
Assay: NCI In Vivo Anticancer Drug Screen. Data for tumor model L1210 Leukemia (intracerebral) in B6D2F1 (BDF1) mice
Conditions: higher = longer survival
Summary of the method: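 Transplantable tumour-bearing mice, compound-treated vs vehicle controls; read-out survival, reported as T/C ratio.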

[1] = endpoint: mean survival time, dose: 6.0 mg/kg/injection, schedule: Q01DX001 (ip), vehicle: carboxymethylcellulose (CMC)
[2] = endpoint: mean survival time, dose: 9.0 mg/kg/injection, schedule: Q01DX001 (ip), vehicle: carboxymethylcellulose (CMC)
[3] = endpoint: mean survival time, dose: 13.0 mg/kg/injection, schedule: Q01DX001 (ip), vehicle: carboxymethylcellulose (CMC)

Measured: T/C

O=NN(CCCl)C(=O)Nc1ccccc1
inactive: endpoint: mean survival time, dose: 8.0 mg/kg/injection, schedule: Q01DX001 (ip), vehicle: carboxymethylcellulose (CMC) 97 % of control | endpoint: mean survival time, dose: 12.0 mg/kg/injection, schedule: Q01DX001 (ip), vehicle: carboxymethylcellulose (CMC) 101 % of control | endpoint: mean survival time, dose: 18.0 mg/kg/injection, schedule: Q01DX001 (ip), vehicle: carboxymethylcellulose (CMC) 107 % of control and 96 % of control | endpoint: mean survival time, dose: 36.0 mg/kg/injection, schedule: Q01DX001 (ip), vehicle: carboxymethylcellulose (CMC) 95 % of control | endpoint: mean survival time, dose: 72.0 mg/kg/injection, schedule: Q01DX001 (ip), vehicle: carboxymethylcellulose (CMC) 93 % of control

CCOC(=O)[C@H]1CCC[C@@H](NC(=O)N(CCCl)N=O)C1
inactive: endpoint: mean survival time, dose: 14.0 mg/kg/injection, schedule: Q01DX001 (ip), vehicle: other 103 % of control | endpoint: mean survival time, dose: 21.0 mg/kg/injection, schedule: Q01DX001 (ip), vehicle: other 104 % of control | endpoint: mean survival time, dose: 31.0 mg/kg/injection, schedule: Q01DX001 (ip), vehicle: other 111 % of control | endpoint: mean survival time, dose: 47.0 mg/kg/injection, schedule: Q01DX001 (ip), vehicle: other 109 % of control

CCCCCCCCCCCCCCCCCCCCCC(=O)Nc1ccn(C2OC(CO)C(O)C2O)c(=O)n1 (centres undefined)
active: endpoint: median survival time, dose: 25.0 mg/kg/injection, schedule: Q01DX009 (ip), vehicle: saline with Tween-80 208 % of control | endpoint: median survival time, dose: 50.0 mg/kg/injection, schedule: Q01DX009 (ip), vehicle: saline with Tween-80 162 % of control | endpoint: median survival time, dose: 100.0 mg/kg/injection, schedule: Q01DX009 (ip), vehicle: saline with Tween-80 198 % of control | endpoint: median survival time, dose: 200.0 mg/kg/injection, schedule: Q01DX009 (ip), vehicle: saline with Tween-80 250 % of control
inactive: endpoint: median survival time, dose: 400.0 mg/kg/injection, schedule: Q01DX009 (ip), vehicle: saline with Tween-80 96 % of control

CS(=O)(=O)Nc1ccc(Nc2c3ccccc3nc3cc([N+](=O)[O-])ccc23)cc1
inactive: endpoint: mean survival time, dose: 1.25 mg/kg/injection, schedule: Q01DX009 (ip), vehicle: Klucel (hydroxypropylcellulose) (HPC) 91 % of control | endpoint: mean survival time, dose: 1.25 mg/kg/injection, schedule: Q01DX009 (sc), vehicle: Klucel (hydroxypropylcellulose) (HPC) 106 % of control | endpoint: mean survival time, dose: 2.5 mg/kg/injection, schedule: Q01DX009 (ip), vehicle: Klucel (hydroxypropylcellulose) (HPC) 87 % of control | endpoint: mean survival time, dose: 2.5 mg/kg/injection, schedule: Q01DX009 (sc), vehicle: Klucel (hydroxypropylcellulose) (HPC) 97 % of control | endpoint: mean survival time, dose: 3.12 mg/kg/injection, schedule: Q01DX001 (ip), vehicle: saline 98 % of control | endpoint: mean survival time, dose: 5.0 mg/kg/injection, schedule: Q01DX009 (ip), vehicle: Klucel (hydroxypropylcellulose) (HPC) 89 % of control | endpoint: mean survival time, dose: 5.0 mg/kg/injection, schedule: Q01DX009 (sc), vehicle: Klucel (hydroxypropylcellulose) (HPC) 103 % of control | endpoint: mean survival time, dose: 6.25 mg/kg/injection, schedule: Q01DX001 (ip), vehicle: saline 98 % of control | endpoint: mean survival time, dose: 10.0 mg/kg/injection, schedule: Q01DX009 (sc), vehicle: Klucel (hydroxypropylcellulose) (HPC) 102 % of control | endpoint: mean survival time, dose: 12.5 mg/kg/injection, schedule: Q01DX001 (ip), vehicle: saline 101 % of control | endpoint: mean survival time, dose: 25.0 mg/kg/injection, schedule: Q01DX001 (ip), vehicle: saline 101 % of control | endpoint: mean survival time, dose: 50.0 mg/kg/injection, schedule: Q01DX001 (ip), vehicle: saline 90 % of control

O=NN(CCBr)C(=O)NCCBr
inactive: endpoint: mean survival time, dose: 133.0 mg/kg/injection, schedule: Q01DX001 (ip), vehicle: carboxymethylcellulose (CMC) 112 % of control

O=CC(NC(=O)N(CCCl)N=O)C(O)C(O)C(O)CO (centres undefined)
inactive: endpoint: mean survival time, dose: 4.0 mg/kg/injection, schedule: Q01DX001 (ip), vehicle: carboxymethylcellulose (CMC) 111 % of control | [1] 111 % of control | [2] 112 % of control | endpoint: mean survival time, dose: 9.0 mg/kg/injection, schedule: Q01DX001 (ip), vehicle: saline 110 % of control | [3] 123 % of control | endpoint: mean survival time, dose: 13.0 mg/kg/injection, schedule: Q01DX001 (ip), vehicle: saline 109 % of control | endpoint: mean survival time, dose: 20.0 mg/kg/injection, schedule: Q01DX001 (ip), vehicle: carboxymethylcellulose (CMC) 119 % of control | endpoint: mean survival time, dose: 20.0 mg/kg/injection, schedule: Q01DX001 (ip), vehicle: saline 112 % of control | endpoint: mean survival time, dose: 30.0 mg/kg/injection, schedule: Q01DX001 (ip), vehicle: carboxymethylcellulose (CMC) 119 % of control | endpoint: mean survival time, dose: 30.0 mg/kg/injection, schedule: Q01DX001 (ip), vehicle: saline 117 % of control | endpoint: mean survival time, dose: 45.0 mg/kg/injection, schedule: Q01DX001 (ip), vehicle: carboxymethylcellulose (CMC) 111 % of control | endpoint: mean survival time, dose: 45.0 mg/kg/injection, schedule: Q01DX001 (ip), vehicle: saline 106 % of control

N#CCCN1c2ccccc2Sc2ccccc21
inactive: endpoint: mean survival time, dose: 12.5 mg/kg/injection, schedule: Q04DX003 (ip), vehicle: Klucel (hydroxypropylcellulose) (HPC) 100 % of control | endpoint: mean survival time, dose: 25.0 mg/kg/injection, schedule: Q04DX003 (ip), vehicle: Klucel (hydroxypropylcellulose) (HPC) 96 % of control | endpoint: mean survival time, dose: 50.0 mg/kg/injection, schedule: Q04DX003 (ip), vehicle: Klucel (hydroxypropylcellulose) (HPC) 109 % of control | endpoint: mean survival time, dose: 100.0 mg/kg/injection, schedule: Q04DX003 (ip), vehicle: Klucel (hydroxypropylcellulose) (HPC) 104 % of control | endpoint: mean survival time, dose: 200.0 mg/kg/injection, schedule: Q04DX003 (ip), vehicle: Klucel (hydroxypropylcellulose) (HPC) 98 % of control

CN(C)/N=N/c1nc[nH]c1C(N)=O
inactive: endpoint: mean survival time, dose: 53.0 mg/kg/injection, schedule: Q01DX Z (ip), vehicle: carboxymethylcellulose (CMC) 106 % of control | endpoint: mean survival time, dose: 80.0 mg/kg/injection, schedule: Q01DX Z (ip), vehicle: carboxymethylcellulose (CMC) 104 % of control | endpoint: mean survival time, dose: 120.0 mg/kg/injection, schedule: Q01DX Z (ip), vehicle: carboxymethylcellulose (CMC) 112 % of control | endpoint: mean survival time, dose: 180.0 mg/kg/injection, schedule: Q01DX Z (ip), vehicle: carboxymethylcellulose (CMC) 93 % of control | endpoint: mean survival time, dose: 317.0 mg/kg/injection, schedule: Q01DX001 (ip), vehicle: carboxymethylcellulose (CMC) 101 % of control | endpoint: mean survival time, dose: 482.0 mg/kg/injection, schedule: Q01DX001 (ip), vehicle: carboxymethylcellulose (CMC) 87 % of control | endpoint: median survival time, dose: 10.0 mg/kg/injection, schedule: Q01DX009 (ip), vehicle: carboxymethylcellulose (CMC) 111 % of control | endpoint: median survival time, dose: 20.0 mg/kg/injection, schedule: Q01DX009 (ip), vehicle: carboxymethylcellulose (CMC) 111 % of control | endpoint: median survival time, dose: 40.0 mg/kg/injection, schedule: Q01DX009 (ip), vehicle: carboxymethylcellulose (CMC) 114 % of control | endpoint: median survival time, dose: 80.0 mg/kg/injection, schedule: Q01DX009 (ip), vehicle: carboxymethylcellulose (CMC) 117 % of control | endpoint: median survival time, dose: 160.0 mg/kg/injection, schedule: Q01DX009 (ip), vehicle: carboxymethylcellulose (CMC) 118 % of control | endpoint: median survival time, dose: 200.0 mg/kg/injection, schedule: Q01DX009 (ip), vehicle: carboxymethylcellulose (CMC) 103 % of control | endpoint: median survival time, dose: 300.0 mg/kg/injection, schedule: Q01DX009 (ip), vehicle: carboxymethylcellulose (CMC) 94 % of control | endpoint: median survival time, dose: 320.0 mg/kg/injection, schedule: Q01DX009 (ip), vehicle: carboxymethylcellulose (CMC) 108 % of control | endpoint: median survival time, dose: 400.0 mg/kg/injection, schedule: Q01DX009 (ip), vehicle: carboxymethylcellulose (CMC) 111 % of control | endpoint: median survival time, dose: 600.0 mg/kg/injection, schedule: Q01DX009 (ip), vehicle: carboxymethylcellulose (CMC) 94 % of control

O=NN(CCCl)C(=O)Nc1ccc(CC(=O)O)cc1
inactive: [1] 104 % of control | [2] 106 % of control | [3] 110 % of control | endpoint: mean survival time, dose: 26.0 mg/kg/injection, schedule: Q01DX001 (ip), vehicle: carboxymethylcellulose (CMC) 104 % of control

N#[N+]c1cnc([O-])[nH]c1=O
inactive: endpoint: mean survival time, dose: 5.0 mg/kg/injection, schedule: Q01DX015 (ip), vehicle: alkali diluted with saline 102 % of control | endpoint: mean survival time, dose: 7.7 mg/kg/injection, schedule: Q01DX015 (ip), vehicle: alkali diluted with saline 101 % of control | endpoint: mean survival time, dose: 11.5 mg/kg/injection, schedule: Q01DX015 (ip), vehicle: alkali diluted with saline 106 % of control | endpoint: mean survival time, dose: 12.0 mg/kg/injection, schedule: Q01DX001 (ip), vehicle: alkali diluted with saline 97 % of control | endpoint: mean survival time, dose: 15.0 mg/kg/injection, schedule: Q01DX Z (ip), vehicle: alkali diluted with saline 101 % of control | endpoint: mean survival time, dose: 19.0 mg/kg/injection, schedule: Q01DX001 (ip), vehicle: alkali diluted with saline 102 % of control | endpoint: mean survival time, dose: 20.0 mg/kg/injection, schedule: Q01DX Z (ip), vehicle: alkali diluted with saline 97 % of control | endpoint: mean survival time, dose: 25.0 mg/kg/injection, schedule: Q01DX Z (ip), vehicle: alkali diluted with saline 92 % of control | endpoint: mean survival time, dose: 29.0 mg/kg/injection, schedule: Q01DX001 (ip), vehicle: alkali diluted with saline 106 % of control | endpoint: mean survival time, dose: 40.0 mg/kg/injection, schedule: Q01DX Z (ip), vehicle: alkali diluted with saline 91 % of control
